Experimental findings from PubChem BioAssay AID194 (DTP/NCI, 2004) are described below.

This assay concerns BDF1 mice, B16 melanoma s.c., survival/tumor T/C. The experiment in a line: NCI In Vivo Anticancer Drug Screen. Data for tumor model B16 Melanoma (subcutaneous) in B6D2F1 (BDF1) mice. The conditions noted are these: endpoint: median survival time, higher = longer survival. The procedure: The antitumor activity of compounds was measured in mice bearing transplantable tumors. Survival or tumor size were measured and the results are expressed as the measurement made in the treated group (T) divided by the measurement made in the vehicle treated control group (C). The tumor model used in this assay is B16 Melanoma (subcutaneous) in B6D2F1 (BDF1) mice

The mark [1] stands for this setting: dose: 16.0 mg/kg/injection, schedule: Q01DX009 (ip), vehicle: Klucel (hydroxypropylcellulose) (HPC).
Setting [2] is: dose: 16.0 mg/kg/injection, schedule: Q01DX009 (ip), vehicle: water.
[3] abbreviates: dose: 32.0 mg/kg/injection, schedule: Q01DX009 (ip), vehicle: Klucel (hydroxypropylcellulose) (HPC).
Where [4] appears, read: dose: 100.0 mg/kg/injection, schedule: Q04DX003 (ip), vehicle: saline.
Where [5] appears, read: dose: 16.0 mg/kg/injection, schedule: Q01DX009 (ip), vehicle: other.
The mark [6] stands for this setting: dose: 4.0 mg/kg/injection, schedule: Q01DX009 (ip), vehicle: saline.
Where [7] appears, read: dose: 8.0 mg/kg/injection, schedule: Q01DX009 (ip), vehicle: saline.
Where [8] appears, read: dose: 16.0 mg/kg/injection, schedule: Q01DX009 (ip), vehicle: saline.
Where [9] appears, read: dose: 4.0 mg/kg/injection, schedule: Q01DX009 (ip), vehicle: Klucel (hydroxypropylcellulose) (HPC).
The mark [10] stands for this setting: dose: 8.0 mg/kg/injection, schedule: Q01DX009 (ip), vehicle: Klucel (hydroxypropylcellulose) (HPC).
Setting [11] is: dose: 32.0 mg/kg/injection, schedule: Q01DX009 (ip), vehicle: saline.
The mark [12] stands for this setting: dose: 64.0 mg/kg/injection, schedule: Q01DX009 (ip), vehicle: saline.

“And” between values parts separate entries of the source, which are not always exact repeats. Identical values can stand only once. Inconclusive results are not listed.

Turning to `Cc1c(N)nc(C(CC(N)=O)NCC(N)C(N)=O)nc1C(=O)NC(C(=O)NC(C)C(O)C(C)C(=O)NC(C(=O)NCCc1nc(-c2nc(C(=O)NCCCNCCCc3ccccn3)cs2)cs1)C(C)O)C(OC1OC(CO)C(O)C(O)C1OC1OC(CO)C(O)C(OC(N)=O)C1O)c1cnc[nH]1` (stereo not given), the T/C is 101 % of control (dose: 0.1 mg/kg/injection, schedule: Q01DX010 (ip), vehicle: water); 116 % of control and 124 % of control (dose: 0.2 mg/kg/injection, schedule: Q01DX010 (ip), vehicle: water); 96 % of control and 124 % of control (dose: 0.4 mg/kg/injection, schedule: Q01DX010 (ip), vehicle: water); 117 % of control (dose: 1.6 mg/kg/injection, schedule: Q01DX010 (ip), vehicle: water); 88 % of control (dose: 3.2 mg/kg/injection, schedule: Q01DX010 (ip), vehicle: water).

`C[C@@H](CN1CC(=O)NC(=O)C1)N1CC(=O)NC(=O)C1`: the T/C was 91 % of control (dose: 6.25 mg/kg/injection, schedule: Q04DX003 (ip), vehicle: saline); 97 % of control (dose: 12.5 mg/kg/injection, schedule: Q04DX003 (ip), vehicle: saline); 100 % of control under setting [1]; 117 % of control under setting [2]; 107 % of control (dose: 25.0 mg/kg/injection, schedule: Q04DX003 (ip), vehicle: saline); 110 % of control under setting [3]. The T/C is 168 % of control (dose: 64.0 mg/kg/injection, schedule: Q01DX009 (ip), vehicle: Klucel (hydroxypropylcellulose) (HPC)); 119 % of control under setting [4]; 115 % of control (dose: 200.0 mg/kg/injection, schedule: Q04DX003 (ip), vehicle: saline); 108 % of control (dose: 400.0 mg/kg/injection, schedule: Q04DX003 (ip), vehicle: saline); 119 % of control (dose: 800.0 mg/kg/injection, schedule: Q04DX003 (ip), vehicle: saline).

For `O=NN(CCCl)C(=O)NC1[C@H](O)CCC[C@@H]1O` (stereo not given in full), the T/C is, setting by setting: (dose: 1.56 mg/kg/injection, schedule: Q01DX007 (ip), vehicle: water) 95 % of control; (dose: 2.59 mg/kg/injection, schedule: Q01DX007 (ip), vehicle: water) 108 % of control; (dose: 4.32 mg/kg/injection, schedule: Q01DX007 (ip), vehicle: water) 114 % of control.

On to `CCOC(=O)C(CC(C)C)NC(=O)C(Cc1ccc(N(CCCl)CCCl)cc1)NC(C)=O` (stereo not given), for which the T/C reads like this: (dose: 1.0 mg/kg/injection, schedule: Q01DX009 (ip), vehicle: other) 91 % of control; (dose: 2.0 mg/kg/injection, schedule: Q01DX009 (ip), vehicle: other) 103 % of control; (dose: 4.0 mg/kg/injection, schedule: Q01DX009 (ip), vehicle: other) 97 % of control; under setting [5], 89 % of control.

Regarding `CC1(C)N=C(N)N=C(N)N1c1ccc(OCC(=O)Nc2ccc(S(=O)(=O)F)cc2)c(Cl)c1`, the T/C (dose: 50.0 mg/kg/injection, schedule: Q04DX003 (ip), vehicle: saline) was 115 % of control and the T/C under setting [4] is 113 % of control.

For `Nc1nc([Se])c2ncn(C3OC(CO)C(O)C3O)c2n1` (stereo not given), the T/C (dose: 1.0 mg/kg/injection, schedule: Q01DX009 (ip), vehicle: saline) was 108 % of control; the T/C (dose: 2.0 mg/kg/injection, schedule: Q01DX009 (ip), vehicle: saline) was 98 % of control and 121 % of control; the T/C under setting [6] was 121 % of control; the T/C under setting [7] is 108 % of control; the T/C under setting [8] was 111 % of control.

With `FC(F)c1nc2nc(Cl)c(Cl)nc2[nH]1`, the T/C is 106 % of control (dose: 2.0 mg/kg/injection, schedule: Q01DX009 (ip), vehicle: Klucel (hydroxypropylcellulose) (HPC)); 114 % of control under setting [9]; 97 % of control under setting [10]; 157 % of control (dose: 8.0 mg/kg/injection, schedule: Q01DX009 (ip), vehicle: other); 102 % of control under setting [1]; 117 % of control under setting [5]. The T/C is, setting by setting: under setting [3], 121 % of control; (dose: 32.0 mg/kg/injection, schedule: Q01DX009 (ip), vehicle: other) 89 % of control.

Consider `CCN(CC)CCCC(C)Nc1c2ccc(Cl)cc2nc2ccc(OC)cc12` (stereo not given), for which the T/C by setting is: (dose: 8.0 mg/kg/injection, schedule: Q01DX009 (ip), vehicle: saline with Tween-80) 116 % of control; under setting [7], 96 % of control; (dose: 8.0 mg/kg/injection, schedule: Q01DX009 (ip), vehicle: suspension in saline) 119 % of control; (dose: 16.0 mg/kg/injection, schedule: Q01DX009 (ip), vehicle: saline with Tween-80) 96 % of control and 118 % of control; under setting [8], 100 % of control; (dose: 16.0 mg/kg/injection, schedule: Q01DX009 (ip), vehicle: suspension in saline) 121 % of control. Further, the T/C is 100 % of control and 108 % of control (dose: 32.0 mg/kg/injection, schedule: Q01DX009 (ip), vehicle: saline with Tween-80); 99 % of control under setting [11]; 116 % of control (dose: 32.0 mg/kg/injection, schedule: Q01DX009 (ip), vehicle: suspension in saline); 102 % of control and 110 % of control (dose: 64.0 mg/kg/injection, schedule: Q01DX009 (ip), vehicle: saline with Tween-80); 95 % of control under setting [12]; 121 % of control (dose: 64.0 mg/kg/injection, schedule: Q01DX009 (ip), vehicle: suspension in saline). For the same compound, the T/C was 102 % of control (dose: 128.0 mg/kg/injection, schedule: Q01DX009 (ip), vehicle: saline with Tween-80) and 119 % of control (dose: 128.0 mg/kg/injection, schedule: Q01DX009 (ip), vehicle: suspension in saline).

`O=c1[nH]cc(N(CCCl)CCCl)c(=O)[nH]1`: the T/C is 109 % of control (dose: 0.25 mg/kg/injection, schedule: Q01DX009 (ip), vehicle: saline with Tween-80) and 124 % of control (dose: 0.5 mg/kg/injection, schedule: Q01DX009 (ip), vehicle: saline with Tween-80).

`C[CH2][Ge]1([CH2]C)[CH2]CC2(CCN(CCCN(C)C)C2)C[CH2]1`: the T/C runs as follows: (dose: 2.0 mg/kg/injection, schedule: Q02DX009 (ip), vehicle: saline) 96 % of control; under setting [6], 98 % of control; (dose: 4.0 mg/kg/injection, schedule: Q02DX009 (ip), vehicle: saline) 110 % of control; under setting [7], 101 % of control; (dose: 8.0 mg/kg/injection, schedule: Q02DX009 (ip), vehicle: saline) 102 % of control; under setting [8], 98 % of control. The T/C by setting is: (dose: 16.0 mg/kg/injection, schedule: Q02DX009 (ip), vehicle: saline) 111 % of control; under setting [11], 112 % of control; (dose: 32.0 mg/kg/injection, schedule: Q02DX009 (ip), vehicle: saline) 109 % of control; under setting [12], 97 % of control.

With `ClC1=NC(Cl)C(Cl)=N/C1=N\c1ncn[nH]1` (stereo not given), the T/C by setting is: under setting [9], 106 % of control; (dose: 4.0 mg/kg/injection, schedule: Q01DX009 (ip), vehicle: water) 89 % of control; under setting [10], 113 % of control; under setting [1], 101 % of control; under setting [2], 170 % of control; (dose: 32.0 mg/kg/injection, schedule: Q01DX009 (ip), vehicle: water) 121 % of control.
